Reference: US20030119792A1, “Method of inhibiting the production and/or effects of intestinal pro-inflammatory cytokines, prostaglandins and others” (priority 2001, published 2003)
Entries after “also recorded” stand apart in the source; their conditions may differ. Marks after values point to notes of the source that are not given here.

Experiments:
[1] = test system: HT-29, THP-1 and U-937 cells; settings: any assayed concentration, any cell types used
Description: Test compounds are prepared at 600 μM stock solution in PBS and further working dilutions are performed in culture medium. Percentage inhibition of cytokine production is calculated for every drug concentration.
The test compounds are prepared at 600 μM stock solution in PBS and further working dilutions are performed in culture medium. Percentage inhibition of cytokine production is calculated for every drug concentration.

[2] = test system: IL-1β production in THP-1 cells; assay: LPS and PMA-stimulated IL-1β production in THP-1 cells; format: cell-based, human; settings: for effect on stimulated IL-1β production (in words): 10^−7 to 10^−4 M
Description: The human monocytic cell line THP-1 is obtained from the Cell Culture Unit of the University of Granada (Granada, Spain) (ECACC reference number: 88081201) and used to assay the effects of the different compounds on IL-1 production. These cells are cultured in RPMI 1640 (Life Technologies, Paisley, UK) supplemented with 10% fetal bovine serum (Life Technologies), 2 mM glutamine and 0.05 mM mercaptoethanol in a humidified 5% CO2 atmosphere at 37° C. Cells are seeded onto 24-well plates at a density of 2×10^6 cells ml^−1 and pre-incubated during 30 min with the different test compounds, at concentrations ranging from 10^−7 to 10^−4 M, and then stimulated with 1 μg ml^−1 LPS and 1 μM phorbol 12-myristate 13-acetate (PMA). After 20 h, plates are centrifuged at 1,000 g for 10 min and supematants are collected and stored at −80° C. for the determination of IL-1 levels by EIA using a kit system (Amersham Pharmacia Biotech, Buckinghamshire, UK).

[3] = test system: IL-8 production in HT-29 cells; assay: LPS-stimulated IL-8 production in HT-29 cell cultures; format: cell-based, human; settings: for effect on IL-8 basal production: no LPS
Description: The human colon adenocarcinoma cell line HT-29, obtained from the Cell Culture Unit of the University of Granada (Granada, Spain) (ECACC reference number: 91072201), is used as a model of intestinal epithelium to test the ability of the different compounds to inhibit the production/release of IL-8. Cells are grown in Dulbecco's modified Eagle's medium supplemented with 10% fetal bovine serum (Boehringer Mannheim, Mannheim, Germany), 2 mM L-glutamine, 50,000 u l^−1 penicillin/streptomycin and 2.5 mg ml^−1 amphotericin B, in a humidified 5% CO2 atmosphere at 37° C. Cells are seeded into 12-well plates and grown to confluence. […] After 20 h, supernatants are collected, centrifuiged to remove debris at 7,000 g for 10 min and stored at −80° C. for the determination of IL-8 levels by enzyme-linked immunosorbent assay (Biosource International, Nivilles, Belgium).

[4] = test system: TNF-α production in U-937 cells; assay: LPS-stimulated TNF-α production in PMA-differentiated U-937 cells; format: cell-based, human; settings: for effect on TNF-α production (in words): differentiated U-937 cells, LPS 4 h, 10^−6 to 10^−4 M
Description: The cells are cultured in RPMI 1640 (Life Technologies) supplemented with 10% fetal bovine serum and 2 mM glutamine in a humidified 5% CO2 atmosphere at 37° C. Cell concentration is adjusted to 0.5×10^6 cells ml, and monocytic differentiation is induced by incubation with 20 ng ml^−1 PMA for 24 h. After that, cells are harvested, centrifuged at 200 g for 5 min and plated onto 48-well plates at 210^6 cells ml^−1, pre-incubated for 30 min with the test compounds at concentrations ranging from 10^−6 to 10^−4 M, and stimulated with 0.1 μg ml^−1 LPS. After 4 h, plates are centrifuged at 1,000 g for 10 min and supernatants are collected and stored at −80° C. for the quantification of the TNF-α released in the culture medium by EIA using a commercial kit (R&D, Minneapolis, Minn., USA).

[5] = test system: TNBS-induced rat colitis; settings: cited from earlier work
[6] = test system: TNF-α production in mononuclear cells; assay: TNF-α production in mononuclear cells (FIG. 8); format: cell-based; settings: 10 uM
Description: FIG. 8. Effects of UR-12746-S in the production of TNF-α in mononuclear cells.

[7] = test system: colonic myeloperoxidase (MPO) activity; assay: Reactivated TNBS colitis in rats: colonic MPO activity; format: in vivo, rat
Description: (§1) Colitis is induced by the method originally described by Morris et al. (1989), with minor modifications. Female Wistar rats (180-220 g) obtained from the Laboratory Animal Service of the University of Granada (Granada, Spain) are randomly distributed in several experimental groups. Animals are housed in makrolon cages (3-4 rats per cage) and maintained in an air-conditioned animal room with a 12 h light-dark cycle, and they are provided with free access to tap water and food (Panlab A.04). Animals are fasted overnight and anaesthetized with halothane. Under anesthesia, animals received 10 mg of TNBS dissolved in 0.25 ml of 50% ethanol (v v^−1) by means of a Teflon cannula inserted 8 cm through the anus. During and after TNBS administration rats are kept in a head-down position until they recovered from anesthesia, and then returned to their cage. […] Two additional groups are also included for reference: a non colitic group receiving intracolonically 0.25 ml of phosphate buffer saline (pH=7.4) and another colitic group which received only the first dose of TNBS (control group without relapse); both groups are orally administered with vehicle.
Animals are sacrificed with an overdose of halothane, and the entire colon is removed. The colonic segments are placed on an ice-cold plate, cleaned of fat and mesentery, and blotted on filter paper. Each specimen is weighed and its length measured under a constant load (2 g). […] The colon is subsequently divided longitudinally in 3 pieces for biochemical determinations. […] MPO activity is measured according to the technique described by Krawisz et al. (1984); the results are expressed as MPO units per gram of wet tissue and one unit of MPO activity is defined as that degrading 1 μmol min^−1 of hydrogen peroxide at 25° C. […] The supernatants are frozen at −80° C. until assay and cytokines are quantified by enzyme-linked immunosorbent assay (Amersham Pharmacia Biotech). […]

[8] = test system: colonic TNF-α levels; assay: Reactivated TNBS colitis in rats: colonic TNF-α levels; format: in vivo, rat; settings: FIG. 6
Description: (§2) Colitis is induced by the method originally described by Morris et al. (1989), with minor modifications. Female Wistar rats (180-220 g) obtained from the Laboratory Animal Service of the University of Granada (Granada, Spain) are randomly distributed in several experimental groups. Animals are housed in makrolon cages (3-4 rats per cage) and maintained in an air-conditioned animal room with a 12 h light-dark cycle, and they are provided with free access to tap water and food (Panlab A.04). Animals are fasted overnight and anaesthetized with halothane. Under anesthesia, animals received 10 mg of TNBS dissolved in 0.25 ml of 50% ethanol (v v^−1) by means of a Teflon cannula inserted 8 cm through the anus. […]
(§3) Animals are sacrificed with an overdose of halothane, and the entire colon is removed. […] Each specimen is weighed and its length measured under a constant load (2 g). […] MPO activity is measured according to the technique described by Krawisz et al. (1984); the results are expressed as MPO units per gram of wet tissue and one unit of MPO activity is defined as that degrading 1 μmol min^−1 of hydrogen peroxide at 25° C. […] The supernatants are frozen at −80° C. until assay and cytokines are quantified by enzyme-linked immunosorbent assay (Amersham Pharmacia Biotech). […]

[9] = test system: reactivated TNBS colitis; assay: Reactivated TNBS colitis in rats: macroscopic colonic damage; format: in vivo, rat
Description: as §1
Animals are sacrificed with an overdose of halothane, and the entire colon is removed. The colonic segments are placed on an ice-cold plate, cleaned of fat and mesentery, and blotted on filter paper. Each specimen is weighed and its length measured under a constant load (2 g). […] The colon is subsequently divided longitudinally in 3 pieces for biochemical determinations. […] MPO activity is measured according to the technique described by Krawisz et al. (1984); the results are expressed as MPO units per gram of wet tissue and one unit of MPO activity is defined as that degrading 1 μmol min^−1 of hydrogen peroxide at 25° C. Samples for the determination of TNF-α and IL-1 synthesis are immediately weighed, minced on an ice-cold plate and suspended in a tube with 10 mM sodium phosphate buffer, pH=7.4, 1:5 w v^−1. The tubes are placed in a shaking water bath at 37° C. for 20 min and centrifuged at 9000 g for 30 s at 4° C. The supernatants are frozen at −80° C. until assay and cytokines are quantified by enzyme-linked immunosorbent assay (Amersham Pharmacia Biotech). All biochemical measurements are completed within one week from the time of sample collection and are performed in duplicate.

[10] = test system: colonic IL-1β levels; assay: Reactivated TNBS colitis in rats: colonic IL-1β levels; format: in vivo, rat; settings: FIG. 5
Description: as §2, §3

[11] = two weeks after the initial colonic challenge
[12] = 25 mg kg^−1 oral daily, 3 wk (after second TNBS)
[13] = 25 mg kg^−1 oral daily, 4 wk (after second TNBS)
[14] = 50 mg kg^−1 oral daily, 3 wk (after second TNBS)
[15] = 50 mg kg^−1 oral daily, 4 wk (after second TNBS)

In the case of `Cc1nc2cnccc2n1CC1CCN(C(=O)C=C(c2ccccc2)c2ccc(N=Nc3ccc(O)c(C(=O)O)c3)cc2)CC1` [trans-1-[[1-[3-[4-(4-hydroxy-3-carboxyphenylazo)phenyl]-3-phenylpropenoyl]-4-piperidyl]methyl]-1H-2-methylimidazole [4,5-c] pyridine], the “viability (trypan blue exclusion)” value [1] is reported as “higher than 95%”.

In the case of `Nc1ccc(O)c(C(=O)O)c1` [5-ASA, 5-aminosalicylic acid], the “effect on stimulated IL-1β production (in words)” value [2] is reported as “only a weak effect; also recorded: weak inhibitory activity”, the “inhibition of stimulated IL-1β production” value ([2]; the different concentrations assayed) is reported as 10-20% and the inhibition at 1 µM ([3]; Homo sapiens, LPS, achieved at 10^−6 M, not higher up to 10^−4 M, read-out: maximum inhibitory effect on LPS-stimulated IL-8 production) is reported as 30 to 40%. The “effect on IL-8 basal production” value [3] was “no significant effect” and the “effect on TNF-α production (in words)” value [4] was “devoid of any significant effect; also recorded: inactive”.

In the case of “(Z)-1-[4-(3-aminophenyl)-1-oxo-3-phenyl-2-propenyl]-4-[(2-methyl-lH-imidazo[4,5-c]pyridin-1-yl)methyl] piperidine [UR-12715]”, the “effect on stimulated IL-1β production (in words)” value [2] is reported as “inhibited; also recorded: inhibits the stimulated cytokine production in a concentration-dependent way”, the “effect on IL-8 basal production” value [3] is reported as “no significant effect” and the “effect on TNF-α production (in words)” value [4] is reported as “inhibited; also recorded: concentration-dependent inhibitory effect”.

In the case of `Cc1nc2cnccc2n1CC1CCN(C(=O)C=C(c2ccccc2)c2ccc(/N=N\c3ccc(O)c(C(=O)O)c3)cc2)CC1` [UR-12746 free acid, (Z)-2-hydroxy-5-[[4-[3-[4-[(2-methyl-1H-imidazo[4,5-c]pyridin-1-yl)methyl]-1-piperidinyl]-3-oxo-1-phenyl-1-propenyl]phenyl]azo] benzoic acid], the IL-1β production ([5]; 50-100 mg/kg, 4 week time span) is given as “reduce IL-1β production”, the “Platelet Activating Factor (PAF) activity” value ([5]; 50-100 mg/kg, 4 week time span) is given as “inhibit Platelet Activating Factor (PAF) activity” and the “colonic myeloperoxidase (MPO) activity” value ([5]; 50-100 mg/kg, 4 week time span) is given as “reduce colonic myeloperoxidase (MPO) activity”. For the same compound, the LTB4 production ([5]; only at 100 mg/kg and only after 3 and 4 weeks of administration) was “reduce LTB4 production” and the colonic damage ([5]; only at the 100 mg/kg dosage) was “significant reduction in colonic damage”.

In the case of `Cc1nc2cnccc2n1CC1CCN(C(=O)C=C(c2ccccc2)c2ccc(/N=N\c3ccc(O)c(C(=O)[O-])c3)cc2)CC1.[Na+]` [UR-12746-S, (Z)-2-hydroxy-5-[[4-[3-[4-[(2-methyl-1H-imidazo[4,5-c]pyridin-1-yl)methyl]-1-piperidinyl] -3-oxo-1-phenyl-1-propenyl]phenyl]azo] benzoic acid sodium salt], the “inhibition of TNF-α production compared with UR-12715 or a combination of UR-12715 and 5-ASA” value [6] is reported as “to a greater extent”, the “colonic MPO activity after colitis relapse” value ([7]; 25 and 50 mg kg^−1, after second TNBS, FIG. 4) is reported as “prevent the increased activity” and the “colonic MPO activity” value ([7]; 25 and 50 mg kg^−1, first two weeks after the initial TNBS, FIG. 4) is reported as “reduction in colonic MPO activity”. The “effect in reducing MPO activity in comparison with sulphasalazine” value ([7]; same doses, same experimental conditions) was “higher effect”, the “colonic TNF-α levels after second administration of TNBS” value ([8]; 50 mg kg^−1, after second TNBS) was “significantly reduced” and the “colonic TNF-α levels” value [8, 11] was “without showing any significant effect”. For the same compound, the “colonic weight/length ratio, mean ± s.e.mean” value ([9]; 25 mg kg^−1 oral daily, 1 wk) was 146.6 ± 8.1 mg/cm, the “damage score (0-10), median (range)” value ([9]; 25 mg kg^−1 oral daily, 1 wk) was 5.5 (4-6) and the “colonic weight/length ratio, mean ± s.e.mean” value ([9]; 25 mg kg^−1 oral daily, 2 wk) was 143.6 ± 4.9 mg/cm. For the same compound, the “damage score (0-10), median (range)” value ([9]; 25 mg kg^−1 oral daily, 2 wk) was 5 (4-5), the “colonic weight/length ratio, mean ± s.e.mean” value [9, 12] was 150.5 ± 4.3 mg/cm and the “damage score (0-10), median (range)” value [9, 12] was 5 (4-6). For the same compound, the “colonic weight/length ratio, mean ± s.e.mean” value [9, 13] was 143.2 mg/cm, the “damage score (0-10), median (range)” value [9, 13] was 5 (2-6) and the “colonic weight/length ratio, mean ± s.e.mean” value ([9]; 50 mg kg^−1 oral daily, 1 wk) was 137.0 ± 8.4 mg/cm. For the same compound, the “damage score (0-10), median (range)” value ([9]; 50 mg kg^−1 oral daily, 1 wk) was 4.5 (4-6), the “colonic weight/length ratio, mean ± s.e.mean” value ([9]; 50 mg kg^−1 oral daily, 2 wk) was 120.0 ± 5.9 mg/cm and the “damage score (0-10), median (range)” value ([9]; 50 mg kg^−1 oral daily, 2 wk) was 4 (3-5). For the same compound, the “colonic weight/length ratio, mean ± s.e.mean” value [9, 14] was 142.3 ± 3.1 mg/cm, the “damage score (0-10), median (range)” value [9, 14] was 4 (3-5)* and the “colonic weight/length ratio, mean ± s.e.mean” value [9, 15] was 110.8 mg/cm. The “damage score (0-10), median (range)” value [9, 15] was 3 (2-4)*, the “colonic macroscopic damage score and colonic weight/length ratio after reactivation, compared with control colitic animals without relapse” value ([9]; after second TNBS dose) was “no statistical differences” and the “potency in inhibiting TNF-α production compared to the individual components, a combination of the components and sulfasalazine” value ([4]; U-937 cells, FIG. 7) was “more potent”. The “colonic IL-1β levels after second administration of TNBS” value ([10]; after second TNBS) was “effectively prevents the increase in IL-1β levels” and the “colonic IL-1β levels” value [10, 11] was “decrease colonic IL-1β levels significantly”.
